From patent publication US12653776B2, “Methods of treatment of cancer by continuous infusion of coenzyme Q10” (priority 2013, dated 2026)

How the values were obtained:
[1] = tested on: MIAPaCa-2 human pancreatic tumor cells; assay: Pancreatic cancer (MIAPaCa-2) mouse model, survival; format: in vivo, NOD scid gamma (NSG) mice
Procedure: For example, FIG. 7 is a schematic describing a study investigating three different dosing regimens for coenzyme Q10 in an animal model of pancreatic cancer. The effect of coenzyme Q10 alone or in combination with gemcitabine on total survival in a preclinical mouse model of pancreatic cancer was evaluated.
Equal numbers of MIAPaCa-2 human pancreatic tumor cells were suspended in […]® and injected into NOD scid gamma (NSG) mice. The NSG mouse model is devoid of innate and adaptive immune systems and provides a biological environment suitable for the growth of human tumors in vivo. The MIAPaCa-2 is a well established human derived pancreatic carcinoma cell line that can be used to establish pancreatic tumors in immunosuppressed animals. MIAPaca-2 tumors were allowed to develop for, on average, at least 3 weeks in mice prior to initiation of treatment. Animals with palpable tumors were randomized into treatment groups.
The three treatment regimens utilized for the study included once/daily, twice/daily or thrice/daily dosing of coenzyme Q10 at either 50 mg/kg body weight (Regimen 1 & Regimen 2) or 50 mg/kg or 75 mg/kg body weight (Regimen 3) alone or in combination with a fixed dose of gemcitabine (150) mg/kg body weight). For example, mice treated twice/daily received two 50 mg/kg doses of coenzyme Q10, for a total of 100 mg/kg/day, and mice treated thrice daily received three 50 mg/kg doses of coenzyme Q10 for a total of 150 mg/kg/day. Each group of animals received chemotherapeutic treatment for a minimum of three cycles and was maintained to determine outcomes.
Next, a continuous infusion protocol was implemented to determine the effect of constant coenzyme Q10 administration on survival in an animal model of pancreatic cancer. An infusion pump was surgically installed in the animals to facilitate continuous infusion of coenzyme Q10 at a dose of 25 mg/kg, 50 mg/kg or 100 mg/kg body weight per day. Treatment was continued throughout the entire duration of the study.

AML or ALL = assay: Phase 1a/b study, 18 day continuous infusion in relapsed/refractory AML or ALL; conditions: at the end of the study
Procedure: This study is conducted in the inpatient setting for the first 10 patients enrolled on monotherapy to closely monitor the coagulation profile, gain experience and collect safety data during the first full cycle of therapy (21 days) and at least 30 days of post-dosing follow-up Platelet count and coagulation parameters are obtained every day in the inpatient setting. […] Treatment may continue in either the inpatient and/or outpatient setting for subsequent patients enrolled on study. Platelet count and coagulation are monitored at least 3 times/week in the outpatient setting and daily in the inpatient setting.
Each cycle of monotherapy is 21 days in length. […] Each cycle of combination therapy is 28 days in length. […] Patients who experience a DLT during cycle 1 of monotherapy or cycle 1 of combination therapy are discontinued.
On Day 1 of each cycle (i.e., Monday) the dose consists of an accelerated rate of infusion of 25% of the total dose volume over 1 hour with the remaining 75% of the dose volume infused over 23 hours. Subsequent daily doses (Days 2 through 18) are infused uniformly over 24 hours (no accelerated rate in the first hour). […] The principal investigator will consult with the Medical Monitor and the Chair of the DSMB to determine the appropriate dose level for each patient.

advanced solid tumors = assay: First-in-human Phase 1 study (CTL0510), 4-hour IV infusion 3 times weekly: tumor response; format: in vivo
Procedure: The first-in-human Phase 1 study with coenzyme Q10 nanosuspension (40 mg/ml) was conducted in 50 patients with advanced solid tumors. The objectives were to assess the safety, maximum tolerated dose, PK and PD of coenzyme Q10, specifically a 4% coenzyme Q10 nanosuspension formulation (as described in WO 2011/112900, the entire contents of which are expressly incorporated herein by reference), administered as a 4-hour IV infusion 3 times weekly in 28-day cycles. Nine dose levels were explored ranting from 5.62 to 139 mg/kg. Plasma concentration profiles and PK parameters were determined from blood samples collected pre-dose and at intervals to 48 hours post-dose.

[2] = tested on: LnCaP human prostate adenocarcinoma cells; assay: Prostate cancer (LnCaP) mouse model, survival; format: in vivo, immunocompromised mice
Procedure: The observed improvement in animal cohorts administered coenzyme Q10 as a continuous infusion was repeated in other animal models of cancer. For example. […] LnCaP human prostate adenocarcinoma cells were injected into immunocompromised mice. Coenzyme Q10 was administered using two different dosing regimens. One cohort was administered a total dose of 75 mg/kg body weight per day by dosing 25 mg/kg body weight every 8 hours (multiple bolus regimen). In a second cohort, an infusion pump was surgically installed in the animals to facilitate continuous infusion of coenzyme Q10 at a total dose of 75 mg/kg body weight per day. Treatment was continued throughout the entire duration of the study.

solid tumors = assay: Phase 1a/b study, 96-hour continuous IV infusion: tumor response and PET; format: in vivo, human
Procedure: Assessments of the antitumor activity of coenzyme Q10 is performed at the end of Cycle 2 and every 2 cycles thereafter using standard techniques such as computerized tomography (CT) or magnetic resonance imaging (MRI) for patients with measurable disease. Response is evaluated using Response Evaluation Criteria in Solid Tumors (RECIST) v1.1. Patients who experience no unacceptable toxicity or disease progression, may receive additional 28-day cycles for up to 1 year on Arm 1 or 2. Patients on Arm 1 who progress may elect to continue coenzyme Q10 treatment in combination with gemcitabine, 5-FU, or docetaxel at the treating physician's discretion. Once a dose level of coenzyme Q10 monotherapy is evaluated and the CRC determines it safe to escalate to the next dose level, Cohort 1 of Treatment Arm 2 of coenzyme Q10 in combination with chemotherapy will open to accrual. Cohort 1 of Arm 2 patients are enrolled onto one of 3 chemotherapies, gemcitabine, 5-FU, or docetaxel. Cycle 1 of combination therapy (Arm 2) is 6 weeks in duration for patients with coenzyme Q10 administered twice weekly on Mondays and Wednesday for 6 weeks and chemotherapy administered on Fridays, Days 19, 26 and 33. Cycles 2-12 are 4 weeks in duration with coenzyme Q10 administered twice weekly on Mondays and Wednesdays for 4 weeks and chemotherapy administered on Fridays, Days 5, 12 and 19. Dose limiting toxicities are assessed during Cycle 1. Response is assessed after Cycle 2 (10 weeks) and responders who continue onto Cycles 2-12 are assessed every 2 cycles (8 weeks). […] Patients on Arm 2 who progress on one type of chemotherapy may not switch to one of the other chemotherapy agents in combination with coenzyme Q10. However, if the chemotherapy component (i.e., 5-FU, gemcitabine, or docetaxel) of combination therapy is discontinued due to chemotherapy-related toxicity, patients may continue to receive coenzyme Q10 as monotherapy.
Blood samples for pharmacokinetic and pharmacodynamic analyses are collected during each cycle of monotherapy and combination therapy. Urine samples for determination of coenzyme Q10 renal clearance are collected only during Cycle 1 of monotherapy and combination therapy. A PET scan is performed within 2 weeks prior to starting treatment and after 2 weeks of coenzyme Q10 treatment, and 8 weeks of treatment on Arm 1 or 10 weeks of treatment on Arm 2. Core biopsies (2-3) are performed at the time of baseline and Week 2 PET scan for patients who opt-in to participate in these exploratory studies.

[3] = Patient 1, 66 mg/kg week monotherapy, end of two cycles

coenzyme Q10
survival ([1]; coenzyme Q10 alone, once/twice/thrice daily 50 mg/kg (or 75 mg/kg), vs untreated or chemotherapy alone): increase in survival | survival rates ([1]; coenzyme Q10 in combination with gemcitabine 150 mg/kg): higher survival rates than coenzyme Q10 alone or gemcitabine alone | survival rates ([1]; continuous infusion): higher survival rates than those treated with continuous infusion of 50 mg/kg or 25 mg/kg | survival rate ([1]; continuous infusion 25 mg/kg body weight per day vs 50 mg/kg three times per day): higher survival rate | animal survival ([1]; increasing 50 mg/kg doses from once/daily to three times per day): significant improvement in animal survival | outcomes by standard criteria (AML or ALL; e.g., decreased tumor burden): clinically relevant outcomes | adverse events with increased infusion duration (AML or ALL; vs four hour infusion at higher rate): decrease adverse events | progressive disease (advanced solid tumors; 15 patients): 30% | best response stable disease (advanced solid tumors; 23 of 50 patients): 46% | partial response (advanced solid tumors; patient with a sarcoma): One | survival rate ([2]; continuous infusion 75 mg/kg body weight per day vs multiple bolus regimen): even higher survival rate | survival rate ([2]; multiple bolus regimen, total 75 mg/kg body weight per day (25 mg/kg every 8 hours)): higher survival rate than the untreated control | patients evaluable for efficacy showing various responses (solid tumors; Eight out of twelve patients, after dose level 2): 75% | multiomics tissue analysis (solid tumors; Patient 1, 66 mg/kg week monotherapy): switch from anaerobic driven markers to oxidative phosphorylation | cervical lymph node metastases (solid tumors; [3]): disappearance of cervical lymph node metastases | size of the target lesion (solid tumors; [3]): minimal changes | decrease on PET-SUV (solid tumors; Patient 1, gastric adenocarcinoma, 66 mg/kg week monotherapy, end of two cycles): 40% | PET/CT response (solid tumors; Patient 1 after switch to combination arm adding weekly docetaxel): again showed metabolic responses by PET/CT | Max SUV, Right iliac bone lesion (solid tumors; Patient 2, gemcitabine + coenzyme Q10 66 mg/kg, Week 10 PET, from 2.3): 1.9 | Max SUV, Omentum lesion 2 (solid tumors; Patient 2, gemcitabine + coenzyme Q10 66 mg/kg, Week 10 PET, from 3.5): 2.8 | non-target lesion response (solid tumors; Patient 2, gemcitabine + coenzyme Q10 66 mg/kg, lesion in the abdomen): complete response in one of the non-target lesions | Max SUV, Omentum lesion 1 (solid tumors; Patient 2, metastatic bladder cancer, gemcitabine + coenzyme Q10 66 mg/kg, Week 10 PET, previous value 1.7): 0.8 | outcomes by RECIST criteria (solid tumors; expected at the end of the ongoing study): clinically relevant outcomes | antitumor activity in a variety of solid tumors (solid tumors; gastric, pancreatic, colon, head and neck, NSCLC, mesothelioma, TN breast cancer): showed early activity at low doses
